# Where a name gives a salt, the structure may show the parent alone.
# Target: Steroidogenic factor 1 (Homo sapiens, UniProt Q13285)
# Assay: blockers of SF-1 LBD reporter transcription – cell-based, CHO-K1, Gal4-SF-1 LBD, luciferase luminescence, dose response (AID 600)
# Settings: not given
# Steroidogenic factor 1, sequence (Q13285 whole entry, the tested form may be a part): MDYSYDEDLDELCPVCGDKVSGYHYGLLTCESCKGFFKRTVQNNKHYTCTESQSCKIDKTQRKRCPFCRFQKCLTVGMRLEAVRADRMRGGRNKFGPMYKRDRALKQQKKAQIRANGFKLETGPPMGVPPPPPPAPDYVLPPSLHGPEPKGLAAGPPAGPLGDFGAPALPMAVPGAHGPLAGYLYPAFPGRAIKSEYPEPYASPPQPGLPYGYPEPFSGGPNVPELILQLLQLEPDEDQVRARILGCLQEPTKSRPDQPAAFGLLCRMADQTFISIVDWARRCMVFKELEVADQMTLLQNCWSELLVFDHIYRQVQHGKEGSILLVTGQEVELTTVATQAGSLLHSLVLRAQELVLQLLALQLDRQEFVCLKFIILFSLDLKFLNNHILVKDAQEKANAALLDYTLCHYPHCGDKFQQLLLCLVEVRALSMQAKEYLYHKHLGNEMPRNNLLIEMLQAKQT
row,Structure (SMILES),IC50 [µM]
1,CCC(NC(=O)Nc1nnc(C(F)(F)F)s1)(C(F)(F)F)C(F)(F)F,> 11
2,CCc1ccc(-c2nnn(CCC(=O)OC)n2)cc1,6.69
3,Cn1ncnc2c(=O)n(C)c(=O)nc1-2,0.75
4,O=C1c2ccccc2C(=O)C1c1ccc2ccccc2n1,6.72
5,Cc1ccc2[nH]c3c(N4CCN(Cc5ccc6c(c5)OCO6)CC4)ncnc3c2c1,7.31
6,CC[C@H]1CN2CCc3cc(OC)c(OC)cc3[C@@H]2C[C@@H]1C[C@H]1NCCc2cc(OC)c(OC)cc21,0.202
7,Clc1ccc(-c2nnc(NC3=NCCCCC3)o2)cc1,> 3.67
8,COc1cc2nc(S)n3nc(CCn4nc(C)cc4C)nc3c2cc1OC,5.04
9,"Nc1nsc2ccccc12 [1,2-benzothiazol-3-amine]",6.84
10,"Cc1ccc(C(C)C)c(OCCNc2nc3c(c(=O)n(C)c(=O)n3C)n2C)c1 [1,3,7-trimethyl-8-[2-(5-methyl-2-propan-2-yl-phenoxy)ethylamino]purine-2,6-dione]",> 99
11,"Cc1ccc(CNc2nc3ccccc3s2)s1 [1,3-benzothiazol-2-yl-[(5-methyl-2-thienyl)methyl]amine]",> 11
12,"CC(NC(=O)Nc1nnc(C(F)(F)F)s1)(C(F)(F)F)C(F)(F)F [1-(1,1,1,3,3,3-hexafluoro-2-methylpropan-2-yl)-3-[5-(trifluoromethyl)-1,3,4-thiadiazol-2-yl]urea]",6.25
13,CCOc1ccccc1C(=O)N1CCN(c2cccc(Cl)c2)CC1 [1-(3-chlorophenyl)-4-(2-ethoxybenzoyl)piperazine],> 1.22
14,"CC(C)NCC(O)Cn1c2c(c3ccccc31)CCc1c-2cnn1-c1ccccc1 (stereo unspecified) [1-(3-phenyl-4,5-dihydropyrazolo[4,3-a]carbazol-10-yl)-3-(propan-2-ylamino)-2-propanol]",5.85
15,Cc1cccc(NC(=O)Nc2ccc(C#N)cc2)n1 [1-(4-cyanophenyl)-3-(6-methyl-2-pyridinyl)urea],> 1.22
16,"COc1ccc(O)c(C(=O)CC(=O)c2ccc(F)cc2)c1 [1-(4-fluorophenyl)-3-(2-hydroxy-5-methoxy-phenyl)propane-1,3-dione]",> 11

row,Structure (SMILES),IC50 [µM]
1,CCOC(=O)C1CCN(Cc2ccc(O)c3ncccc23)CC1 [1-(8-Hydroxy-quinolin-5-ylmethyl)-piperidine-4-carboxylic acid ethyl ester],9.85
2,"CCn1nc(-c2ccccc2)nc2c(=O)n(C)c(=O)nc1-2 [1-Ethyl-6-methyl-3-phenyl-1H-pyrimido[5,4-e][1,2,4]triazine-5,7-dione]",4.73
3,"COCCn1c(C)cc(C(=O)CSc2nnc(C)s2)c1C [1-[1-(2-methoxyethyl)-2,5-dimethyl-1H-pyrrol-3-yl]-2-[(5-methyl-1,3,4-thiadiazol-2-yl)thio]ethanone]",5.45
4,"Cc1csc(SCC(=O)c2cc(C)n(Cc3cccs3)c2C)n1 [1-[2,5-dimethyl-1-(2-thenyl)pyrrol-3-yl]-2-[(4-methylthiazol-2-yl)thio]ethanone]",> 3.67
5,"Cc1cc(-n2c(C)cc(C(=O)CSc3ncnc4ccccc34)c2C)no1 [1-[2,5-dimethyl-1-(5-methyl-1,2-oxazol-3-yl)pyrrol-3-yl]-2-quinazolin-4-ylsulfanyl-ethanone]",9.13
6,CC(=O)c1ccc(N2CCN(c3ccc(C(F)(F)F)cn3)CC2)cc1 [1-[4-[4-[5-(trifluoromethyl)-2-pyridinyl]-1-piperazinyl]phenyl]ethanone],> 33
7,"Cc1ccc(-c2csc3ncnc(Sc4nnc(CN5CCCCCC5=O)o4)c23)cc1 [1-[[5-[5-(4-methylphenyl)thieno[2,3-d]pyrimidin-4-yl]sulfanyl-1,3,4-oxadiazol-2-yl]methyl]azepan-2-one]",5.76
8,"CCCCn1c2c(c(=O)n(C)c1=O)C(c1ccc(OC)cc1)N1CCCCCC1=N2 (stereo unspecified) [1-butyl-5-(4-methoxyphenyl)-3-methyl-5,7,8,9,10,11-hexahydropyrimido[3,4]pyrimid[4,5-a]azepine-2,4-quinone]",8.03
9,"CCn1nc(-c2cccs2)nc2c(=O)n(C)c(=O)nc1-2 [1-ethyl-6-methyl-3-thiophen-2-yl-pyrimido[5,4-e][1,2,4]triazine-5,7-dione]",2.65
10,"[O-][N+]1=c2ccc(Nc3ccccc3)cc2=NC12CCCCC2 [1-oxido-N-phenyl-5-spiro[benzimidazol-1-ium-2,1'-cyclohexane]amine]",6.49
11,"c1ccc(-n2ncc3c(N4CCCCC4)ncnc32)cc1 [1-phenyl-4-(1-piperidinyl)pyrazolo[3,4-d]pyrimidine]",5.86
12,"Cc1nc2nc(-c3ccccc3)cn2nc1C [2,3-dimethyl-6-phenyl-imidazo[1,2-b][1,2,4]triazine]",> 11
13,"COc1cc(NS(=O)(=O)c2ccc(C)cc2C)cc(OC)c1OC [2,4-dimethyl-N-(3,4,5-trimethoxyphenyl)benzenesulfonamide]",> 11
14,"O=C(c1ccccc1)C(CCC(CN1CCOCC1)C(=O)c1ccccc1)CN1CCOCC1 (stereo unspecified) [2,5-bis(4-morpholinylmethyl)-1,6-diphenylhexane-1,6-dione;hydrochloride]",10.6
15,"COc1cc(C2c3ccc(N)cc3OC(=N)C2C#N)cc(OC)c1OC (stereo unspecified) [2,7-bis(azanyl)-4-(3,4,5-trimethoxyphenyl)-4H-chromene-3-carbonitrile]",7.92

# Next, values leading:
row,IC50 [µM],Structure (SMILES)
1,0.837,CCOC(=O)C(C)Oc1cccc2c(=O)n(CC(=O)Nc3ccc4c(c3)OCCO4)ccc12 (stereo unspecified)
2,3.9,O=S1(=O)C=C(Sc2nnc(-c3ccccc3)o2)c2ccccc21
3,5.03,CCN(CC)c1ccc(-c2nn3c(-c4ccccc4OC)nnc3s2)cc1
4,1.06,Fc1ccc2[nH]c3c(N4CCN(c5ccccc5)CC4)ncnc3c2c1
5,3.56,[H][C@@]12C[N@@](CCc3c([nH]c4ccccc34)[C@@](C(=O)OC)(c3cc4c(cc3OC)N(C=O)[C@]3([H])[C@]45CC[N@@]4CC=C[C@@](CC)([C@@H](OC(C)=O)[C@]3(O)C(=O)OC)[C@]45[H])C1)C[C@](O)(CC)C2
6,4.65,O=C(CC=Nc1cccc(F)c1)c1ccc2c(c1)OCO2
7,4.4,"O=C(CSc1nnc(COc2cccc3cccnc23)o1)N1CCc2ccccc21 [1-(2,3-Dihydro-indol-1-yl)-2-[5-(quinolin-8-yloxymethyl)-[1,3,4]oxadiazol-2-ylsulfanyl]-ethanone]"
8,4.96,CCCS(=O)(=O)c1nnnn1-c1cccc(OC)c1 [1-(3-methoxyphenyl)-5-(propylsulfonyl)-1H-tetrazole]
9,0.221,"Cc1ccc(-c2nsc3c(N4CCC(C(N)=O)CC4)ncnc23)cc1 [1-(3-p-Tolyl-isothiazolo[4,5-d]pyrimidin-7-yl)-piperidine-4-carboxylic acid amide]"
10,3.17,"Clc1ccc(-n2ncc3c(N4CCCC4)ncnc32)cc1 [1-(4-chlorophenyl)-4-(1-pyrrolidinyl)pyrazolo[3,4-d]pyrimidine]"
11,< 0.00503,"CC1CCCN(c2ncnc3c2cnn3-c2ccc(Cl)cc2)C1 (stereo unspecified) [1-(4-chlorophenyl)-4-(3-methyl-1-piperidinyl)pyrazolo[3,4-d]pyrimidine]"
12,1.77,"COc1ccc(-n2ncc3c(N4CCCCC4)ncnc32)cc1 [1-(4-methoxyphenyl)-4-(1-piperidinyl)pyrazolo[3,4-d]pyrimidine]"
13,3.42,"CCOC(=O)C1CCN(c2ncnc3c2cnn3-c2ccc(Cl)cc2)CC1 [1-[1-(4-chlorophenyl)-4-pyrazolo[3,4-d]pyrimidinyl]-4-piperidinecarboxylic acid ethyl ester]"
14,3.17,"Nc1nnnn1N=C/C(Br)=C/c1ccccc1 [1-[[(Z)-2-bromanyl-3-phenyl-prop-2-enylidene]amino]-1,2,3,4-tetrazol-5-amine]"
15,1.64,O=C(Nc1ccccc1NC(=O)NC1CCCCC1)NC1CCCCC1 [1-cyclohexyl-3-[2-(cyclohexylcarbamoylamino)phenyl]urea]
16,4.19,C=CS(=O)(=O)c1ccc(Oc2ccc(S(=O)(=O)C=C)cc2)cc1 [1-ethenylsulfonyl-4-(4-ethenylsulfonylphenoxy)benzene]
17,3.4,"COc1ccc(C(=O)Nc2ccc(C)cn2)c(OC)c1 [2,4-dimethoxy-N-(5-methylpyridin-2-yl)benzamide]"
18,0.813,"Cc1oc2cc3c(C(=O)OCCN(C)C)c(C)oc3cc2c1C(=O)OCCN(C)C [2,6-Dimethyl-benzo[1,2-b;4,5-b']difuran-3,7-dicarboxylic acid bis-(2-dimethylamino-ethyl) ester]"
19,2.02,"c1ccc(-c2cn3nc(-c4ccccc4)sc3n2)cc1 [2,6-diphenylimidazo[2,1-b][1,3,4]thiadiazole]"
20,1.51,"O=NC1c2cc(S(=O)(=O)N3CCCCC3)ccc2-c2ccc(S(=O)(=O)N3CCCCC3)cc21 [2,7-Bis-(piperidine-1-sulfonyl)-fluoren-9-one oxime]"

# Same assay, conditions: inactive by the depositor's call
row,IC50 [µM],Structure (SMILES)
1,20.7,CC(C)OCCCNc1ncnc2c1[nH]c1ccc(F)cc12
2,15.5,CN1/C(=C/C(=O)c2nc(S(C)(=O)=O)ncc2Cl)C(C)(C)c2ccccc21
3,16.9,CCCCOC(=O)c1[nH]c2c(c1C)C(=O)CC(c1cc(OC)c(OC)c(OC)c1)C2 (stereo unspecified)
4,29.7,"COc1cc2c(C#N)c(N3CCN(c4ccccc4OC)CC3)nc(N)c2c(N)n1 [1,8-diamino-6-methoxy-3-(4-(2-methoxyphenyl)piperazin-1-yl)-2,7-naphthyridine-4-carbonitrile]"
5,13.4,"Cc1ccccc1S(=O)(=O)Cc1ccc(C(=O)N2CCN(c3cccc(C)c3C)CC2)o1 [1-(2,3-dimethylphenyl)-4-(5-{[(2-methylphenyl)sulfonyl]methyl}-2-furoyl)piperazine]"
6,29.7,"Cc1occc1C(=O)N1CCN(c2ccc(Cl)c(Cl)c2)CC1 [1-(3,4-dichlorophenyl)-4-(2-methyl-3-furoyl)piperazine]"
7,16.9,"COc1cc(CSc2nnnn2-c2ccc(C)cc2)cc(OC)c1OC [1-(4-methylphenyl)-5-[(3,4,5-trimethoxybenzyl)thio]-1H-tetrazole]"
8,24.3,"COc1ccc(NC(=O)NCCCN2CCN(c3cc(C)ccc3C)CC2)cc1 [1-[3-[4-(2,5-dimethylphenyl)-1-piperazinyl]propyl]-3-(4-methoxyphenyl)urea]"
9,20,"Cc1ccc(-c2cn3nc(C)c(C)nc3n2)cc1 [2,3-dimethyl-6-(4-methylphenyl)imidazo[1,2-b][1,2,4]triazine]"
10,10.3,"c1ccc(-c2cccc(-c3ccccn3)n2)nc1 [2,6-bis(2-pyridinyl)pyridine]"

# Source: BindingDB's records for doi:10.7270/Q2319T8T (The Scripps Research Institute Molecular Screening Center, 2007)
